{"source": "patent US12590066B2", "about": "“Fused-heterocyclyl-carbonohydrazonoyl dicyanide compounds and use thereof” (KOREA INSTITUTE OF SCIENCE AND TECHNOLOGY, priority 2020, dated 2026)", "key": {"CYP3A4": {"biological_target": "T1, CYP3A4 (Homo sapiens, UniProt P08684)", "T1 construct": "human liver microsomes (0.25 mg/mL); from tissue; host or cells: human liver microsomes", "T1 sequence (P08684 whole entry)": "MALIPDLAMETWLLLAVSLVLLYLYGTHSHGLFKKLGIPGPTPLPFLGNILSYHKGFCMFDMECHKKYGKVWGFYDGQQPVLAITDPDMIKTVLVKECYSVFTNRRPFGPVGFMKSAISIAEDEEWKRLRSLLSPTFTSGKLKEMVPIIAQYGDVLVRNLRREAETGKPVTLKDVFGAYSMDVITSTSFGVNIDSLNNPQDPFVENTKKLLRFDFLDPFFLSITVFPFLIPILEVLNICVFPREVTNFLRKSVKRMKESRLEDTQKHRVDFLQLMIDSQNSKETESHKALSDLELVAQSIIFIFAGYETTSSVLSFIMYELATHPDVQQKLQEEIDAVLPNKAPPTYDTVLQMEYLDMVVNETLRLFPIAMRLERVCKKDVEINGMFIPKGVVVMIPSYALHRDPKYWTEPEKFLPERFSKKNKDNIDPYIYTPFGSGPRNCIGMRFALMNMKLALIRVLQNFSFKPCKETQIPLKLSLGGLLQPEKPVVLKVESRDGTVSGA", "experiment": "Inhibitory effect on CYP coenzyme activity, human liver microsomes", "format": "in vitro ADME", "settings": "10 μM compound, human liver microsomes 0.25 mg/mL, substrate midazolam, 15 minutes", "description": "(§1) The inhibitory effects of the compounds prepared according to Examples 1 to 57 on CYP coenzyme activity were identified. Specifically, human liver microsomes (0.25 mg/mL), a 0.1 M phosphate buffer solution (pH 7.4), a substrate drug cocktail of five types of drug metabolism enzymes (50 μM phenacetin, 10 μM diclofenac, 100 μM S-mephenytoin, 5 μM dextromethorphan, and 2.5 μM midazolam), and the compound at a concentration of 0 μM or 10 μM were mixed and pre-cultured at 37° C. for 5 minutes, and then further cultured at 37° C. for 15 minutes together with an NADPH generation system solution added thereto. Thereafter, the reaction was terminated by adding an acetonitrile solution containing an internal standard material (terfenadine) and centrifuged for 5 minutes (14,000 rpm, 4° C.), and then a supernatant was injected into an LC-MS/MS system for simultaneous analysis of metabolites of the substrate drugs to thereby evaluate the inhibitory effects on drug metabolism.\n(§2) Metabolites of each CYP coenzyme indicator drug generated through the reaction were analyzed using the Shimadzu Nexera XR system and TSQ Vantage (Thermo). In an HPLC column, Kinetex C18 (2.1 mm×100 mm, 2.6 μm, particle size; Phenomenex, USA) was used, and mobile phases were (A) distilled water containing 0.1% formic acid and (B) acetonitrile containing 0.1% formic acid, and a gradient program shown in Table 3 was applied thereto.\n(§3) The generated metabolites were quantified using a multiple reaction monitoring (MRM) quantification mode, and Xcalibur (version 1.6.1) was used for data analysis. In order to express inhibitory effects of the novel compound prepared according to the examples of the present invention on CYP coenzyme activity, CYP coenzyme activities (%) with respect to the control group not treated with the compound are shown in Table 4 below."}, "CYP2D6": {"biological_target": "T2, CYP2D6 (Homo sapiens, UniProt P10635)", "T2 construct": "human liver microsomes (0.25 mg/mL); from tissue; host or cells: human liver microsomes", "T2 sequence (P10635 whole entry)": "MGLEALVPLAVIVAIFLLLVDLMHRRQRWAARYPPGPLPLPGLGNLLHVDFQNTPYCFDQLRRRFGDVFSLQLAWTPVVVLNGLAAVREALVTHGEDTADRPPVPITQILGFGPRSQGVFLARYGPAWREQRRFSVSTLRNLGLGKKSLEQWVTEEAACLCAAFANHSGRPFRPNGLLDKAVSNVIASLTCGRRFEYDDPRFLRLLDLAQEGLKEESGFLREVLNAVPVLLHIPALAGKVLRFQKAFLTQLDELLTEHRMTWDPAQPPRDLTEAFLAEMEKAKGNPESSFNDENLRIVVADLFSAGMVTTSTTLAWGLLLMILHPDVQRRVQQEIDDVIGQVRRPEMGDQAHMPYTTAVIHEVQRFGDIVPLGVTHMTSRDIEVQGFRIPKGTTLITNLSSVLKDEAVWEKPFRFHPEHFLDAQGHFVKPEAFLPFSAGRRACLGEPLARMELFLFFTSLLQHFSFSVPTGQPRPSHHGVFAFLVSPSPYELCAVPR", "experiment": "Inhibitory effect on CYP coenzyme activity, human liver microsomes", "format": "in vitro ADME", "settings": "10 μM compound, human liver microsomes 0.25 mg/mL, substrate dextromethorphan, 15 minutes", "description": "as §1, §2, §3"}, "CYP2C19": {"biological_target": "T3, CYP2C19 (Homo sapiens, UniProt P33261)", "T3 construct": "human liver microsomes (0.25 mg/mL); from tissue; host or cells: human liver microsomes", "T3 sequence (P33261 whole entry)": "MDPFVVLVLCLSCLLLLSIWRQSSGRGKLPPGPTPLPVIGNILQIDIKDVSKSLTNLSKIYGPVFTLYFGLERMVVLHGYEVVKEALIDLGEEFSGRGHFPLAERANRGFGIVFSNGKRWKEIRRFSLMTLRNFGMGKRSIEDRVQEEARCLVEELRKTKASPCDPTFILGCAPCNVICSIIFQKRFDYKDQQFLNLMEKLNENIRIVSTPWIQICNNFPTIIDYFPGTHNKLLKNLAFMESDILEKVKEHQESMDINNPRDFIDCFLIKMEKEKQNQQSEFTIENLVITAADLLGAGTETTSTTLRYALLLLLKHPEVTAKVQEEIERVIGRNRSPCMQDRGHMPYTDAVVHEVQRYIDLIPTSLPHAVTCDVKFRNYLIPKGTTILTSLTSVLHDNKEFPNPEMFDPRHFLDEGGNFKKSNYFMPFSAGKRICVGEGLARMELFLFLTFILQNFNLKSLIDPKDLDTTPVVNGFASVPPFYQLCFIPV", "experiment": "Inhibitory effect on CYP coenzyme activity, human liver microsomes", "format": "in vitro ADME", "settings": "10 μM compound, human liver microsomes 0.25 mg/mL, substrate S-mephenytoin, 15 minutes", "description": "as §1, §2, §3"}, "CYP1A2": {"biological_target": "T4, CYP1A2 (Homo sapiens, UniProt P05177)", "T4 construct": "human liver microsomes (0.25 mg/mL); from tissue; host or cells: human liver microsomes", "T4 sequence (P05177 1-516)": "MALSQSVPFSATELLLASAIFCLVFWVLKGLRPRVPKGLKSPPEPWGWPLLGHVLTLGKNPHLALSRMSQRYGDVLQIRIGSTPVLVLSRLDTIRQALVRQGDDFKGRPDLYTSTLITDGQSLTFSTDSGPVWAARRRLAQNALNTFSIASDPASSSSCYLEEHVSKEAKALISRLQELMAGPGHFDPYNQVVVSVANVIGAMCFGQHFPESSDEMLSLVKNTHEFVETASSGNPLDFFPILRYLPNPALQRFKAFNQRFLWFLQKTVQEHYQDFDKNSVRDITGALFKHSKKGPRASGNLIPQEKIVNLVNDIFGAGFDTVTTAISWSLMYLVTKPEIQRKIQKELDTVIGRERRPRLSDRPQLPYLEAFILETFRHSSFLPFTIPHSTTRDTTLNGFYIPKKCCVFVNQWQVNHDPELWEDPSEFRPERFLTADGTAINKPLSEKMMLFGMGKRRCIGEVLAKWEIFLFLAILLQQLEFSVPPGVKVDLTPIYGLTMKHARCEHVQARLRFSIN", "experiment": "Inhibitory effect on CYP coenzyme activity, human liver microsomes", "format": "in vitro ADME", "settings": "10 μM compound, human liver microsomes 0.25 mg/mL, substrate phenacetin, 15 minutes", "description": "as §1, §2, §3"}, "CYP2C9": {"biological_target": "T5, CYP2C9 (Homo sapiens, UniProt P11712)", "T5 construct": "human liver microsomes (0.25 mg/mL); from tissue; host or cells: human liver microsomes", "T5 sequence (P11712 whole entry)": "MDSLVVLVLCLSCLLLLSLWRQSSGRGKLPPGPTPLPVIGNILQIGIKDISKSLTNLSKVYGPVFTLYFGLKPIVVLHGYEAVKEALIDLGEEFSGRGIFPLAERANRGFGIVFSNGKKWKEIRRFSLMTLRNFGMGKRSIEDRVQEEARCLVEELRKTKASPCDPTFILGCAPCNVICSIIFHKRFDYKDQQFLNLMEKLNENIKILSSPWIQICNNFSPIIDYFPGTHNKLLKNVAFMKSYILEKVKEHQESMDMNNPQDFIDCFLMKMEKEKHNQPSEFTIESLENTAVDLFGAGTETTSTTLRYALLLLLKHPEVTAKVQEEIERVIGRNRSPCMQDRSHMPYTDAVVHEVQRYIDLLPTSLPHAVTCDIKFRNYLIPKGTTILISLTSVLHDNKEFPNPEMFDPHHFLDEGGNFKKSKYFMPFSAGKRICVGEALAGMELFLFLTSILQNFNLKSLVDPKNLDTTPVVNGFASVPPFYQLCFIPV", "experiment": "Inhibitory effect on CYP coenzyme activity, human liver microsomes", "format": "in vitro ADME", "settings": "10 μM compound, human liver microsomes 0.25 mg/mL, substrate diclofenac, 15 minutes", "description": "as §1, §2, §3"}, "tau protein": {"biological_target": "T6, tau protein (Homo sapiens, UniProt P10636)", "T6 construct": "BiFC fluorescent-protein fragments (type and halves not specified); expressed in transfected cells", "T6 sequence (P10636 1-441 isoform P10636-8)": "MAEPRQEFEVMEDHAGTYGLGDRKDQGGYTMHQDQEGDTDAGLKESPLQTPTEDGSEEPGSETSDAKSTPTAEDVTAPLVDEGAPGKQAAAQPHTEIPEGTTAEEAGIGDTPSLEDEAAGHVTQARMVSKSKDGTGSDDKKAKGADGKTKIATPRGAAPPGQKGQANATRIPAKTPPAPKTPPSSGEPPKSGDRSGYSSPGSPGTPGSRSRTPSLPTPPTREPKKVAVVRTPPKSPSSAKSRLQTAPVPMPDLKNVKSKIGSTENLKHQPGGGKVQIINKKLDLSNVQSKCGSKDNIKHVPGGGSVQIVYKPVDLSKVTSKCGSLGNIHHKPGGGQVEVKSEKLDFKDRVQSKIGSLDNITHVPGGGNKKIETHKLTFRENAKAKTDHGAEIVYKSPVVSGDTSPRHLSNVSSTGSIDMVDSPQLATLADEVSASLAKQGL", "experiment": "Tau-BiFC cell model, inhibition of Forskolin-induced tau protein aggregation", "format": "cell-based", "settings": "Forskolin 30 μM, 48 hours", "description": "In order to select novel tau protein aggregation-inhibiting substances, tau-BiFC cell model, in which formation of tau oligomers in living cells is easily observed, was used. Tau-BiFC cells were aliquoted into a 384-well plate. On the next day, the cells were treated with each of the compounds prepared according to Examples 1 to 57 at concentrations of 1 μM, 3 μM, and 10 μM, together with Forskolin (at a treatment concentration of 30 μM), which is a compound inducing tau protein aggregation by activating tau phosphorylase PKA. After 48 hours, nuclei in the cells were stained using Hoechst (at a treatment concentration of 2 μg/mL), and BiFC fluorescence intensity was automatically measured using Operetta (PerkinElmer) to count stained nuclei in each well out of the entire well plate. The group treated only with Forskolin, which induces tau protein aggregation, was set to a reference point of a 100% tau protein-aggregated state, and the effects of the compounds were confirmed using the equation “BiFC fluorescence intensity due to compound synthesized according to embodiment of present invention/(fluorescence intensity of control group treated only with Forskolin inducing tau protein aggregation−fluorescence intensity of untreated control group)×100”. Furthermore, the degree of cytotoxicity induced by the newly synthesized compound was also measured based on the 100% cell viability of the group treated only with Forskolin as a reference, and the cytotoxicity value of each compound was calculated using the equation “(number of stained nuclei in group treated with compound/number of stained nuclei in group treated with Forskolin)×100”. Based on the treatment results, substances inhibiting intracellular tau protein aggregation were selected from a series of candidate groups showing a tau protein aggregation inhibition rate of 70% or more and cell viability of 100% at a compound treatment concentration of 10 μM or more.\nIn order to evaluate dose-dependent tau protein aggregation inhibition effects of the compounds selected according to Experimental Example 1 on tau protein aggregation, tau-BiFC cells were treated with the selected compounds at concentrations of 0.03 μM, […], 0.3 μM, 1 μM, 3 μM, 10 μM, and 30 μM, respectively, together with Forskolin (at a treatment concentration of 30 μM), which is a tau protein aggregation-inducing substance. After 48 hours, tau protein aggregation reaction and degrees of cytotoxicity were analyzed by observing images of the cells. IC50 and toxicity of the compounds were analyzed by way of nonlinear regression analysis of prism software (Graph Pad)."}, "Tau-BiFC cells": {"tested_on": "Tau-BiFC cells", "experiment": "Cell viability (stained nuclei count) in Tau-BiFC cells", "format": "cell-based", "settings": "10 μM compound, 48 hours; Forskolin-only group = 100% cell viability", "description": "In order to select novel tau protein aggregation-inhibiting substances, tau-BiFC cell model, in which formation of tau oligomers in living cells is easily observed, was used. Tau-BiFC cells were aliquoted into a 384-well plate. On the next day, the cells were treated with each of the compounds prepared according to Examples 1 to 57 at concentrations of 1 μM, 3 μM, and 10 μM, together with Forskolin (at a treatment concentration of 30 μM), which is a compound inducing tau protein aggregation by activating tau phosphorylase PKA. After 48 hours, nuclei in the cells were stained using Hoechst (at a treatment concentration of 2 μg/mL), and BiFC fluorescence intensity was automatically measured using Operetta (PerkinElmer) to count stained nuclei in each well out of the entire well plate. The group treated only with Forskolin, which induces tau protein aggregation, was set to a reference point of a 100% tau protein-aggregated state, and the effects of the compounds were confirmed using the equation “BiFC fluorescence intensity due to compound synthesized according to embodiment of present invention/(fluorescence intensity of control group treated only with Forskolin inducing tau protein aggregation−fluorescence intensity of untreated control group)×100”. Furthermore, the degree of cytotoxicity induced by the newly synthesized compound was also measured based on the 100% cell viability of the group treated only with Forskolin as a reference, and the cytotoxicity value of each compound was calculated using the equation “(number of stained nuclei in group treated with compound/number of stained nuclei in group treated with Forskolin)×100”. Based on the treatment results, substances inhibiting intracellular tau protein aggregation were selected from a series of candidate groups showing a tau protein aggregation inhibition rate of 70% or more and cell viability of 100% at a compound treatment concentration of 10 μM or more. […]"}}}
{"smiles": "Cc1cc(=O)n(C)c2ccc(NN=C(C#N)C#N)cc12", "note": "[Compound 27, (1,4-dimethyl-2-oxo-1,2-dihydroquinolin-6-yl)carbonohydrazonoyl dicyanide]", "values": [{"measurement": "CYP3A4 coenzyme activity (%) with respect to control group not treated", "setting": "CYP3A4", "value": 73.6, "unit": "%"}, {"measurement": "CYP2D6 coenzyme activity (%) with respect to control group not treated", "setting": "CYP2D6", "value": 86.7, "unit": "%"}, {"measurement": "CYP2C19 coenzyme activity (%) with respect to control group not treated", "setting": "CYP2C19", "value": 96.3, "unit": "%"}, {"measurement": "CYP1A2 coenzyme activity (%) with respect to control group not treated", "setting": "CYP1A2", "value": 58.7, "unit": "%"}, {"measurement": "CYP2C9 coenzyme activity (%) with respect to control group not treated", "setting": "CYP2C9", "value": 33.6, "unit": "%"}, {"measurement": "Tau BiFC in cells Response (% @10 μM)", "setting": "tau protein; 10 μM compound, Forskolin-only group = 100% tau protein-aggregated state", "value": "−41", "unit": "%"}, {"measurement": "IC50", "setting": "tau protein; tau-BiFC cells", "value": 10, "unit": "nM"}, {"measurement": "Cell viability (% @10 μM)", "setting": "Tau-BiFC cells", "value": 115, "unit": "%"}]}
